IC50 data for 43 compounds are collected here from patent publication US10632125B2, “MTH1 inhibitors for treatment of inflammatory and autoimmune conditions” (THOMAS HELLEDAYS STIFTELSE FÖR MEDICINSK FORSKNING, priority 2014, dated 2020).

The target in the assay is MTH1 (Homo sapiens, UniProt P36639). The assay can be described thus: MTH1 enzymatic assay (malachite green, coupled to pyrophosphatase). The conditions noted are these: dGTP 100 μM, MTH1 6 nM; 96- or 384-well format; read-out: IC50. The class given is biochemical. How it is done:
MTH1 catalyzes the hydrolysis of dGTP to dGMP and PPi. By coupling the reaction to pyrophosphatase added in excess PPi is converted to Pi that can be detected by using the malachite green assay reagent. […] 96-well method: Briefly, the compound to be analyzed is diluted in DMSO in a 1:3 dilution series generating 12 different compound concentrations giving a final DMSO concentration of 1% in the assay well. MTH1 diluted in assay buffer (100 mM Tris-acetate, 40 mM NaCl, 10 mM magnesium acetate, 1 mM DTT and 0.005% Tween 20) fortified with E. coli pyrophosphatase (0.2 U/ml) is added to a final concentration of 6 nM. dGTP diluted in assay buffer is added to a final concentration of 100 μM. The reaction mixture is incubated for 15 minutes at 22° C. To 100 μl reaction mixture, 25 μl Malachite green assay regent (0.095% Malachite green in 17% H2SO4, 1.5% Ammonium molybdate, 0.17% Tween 20) is added, followed by incubation with shaking for 15 minutes at 22° C. The absorbance of the assay plate is read at 630 nm using a Hidex Sense Multilabel plate reader. The IC50 value is determined by fitting a dose response curve to the data points using nonlinear regression analysis and the equation Y=Bottom+(Top-Bottom)/(1+10^((Log IC50−X)*HillSlope)), where Y is the read absorbance at 630 nm and X is log [compound].
384-Well Method: The compounds to be tested are nano-dispensed, in 11 concentrations, directly in assay plates, with a final DMSO concentration <1%. The protocol and the reaction mixture are the same as for the 96-well assay, with a total reaction volume of 50 μl/well to which 10 μl of Malachite green reagent is added. All additions to the assay plates are made with multidrop.
One may read the IC50 as the concentration that gives 50% inhibition. On to `CNc1cc(-c2ccc(OC)nc2)nc(N)n1` [Example 49, 6-(6-methoxypyridin-3-yl)-4-N-methylpyrimidine-2,4-diamine.], for which the half-inhibitory concentration (IC50) is below 200 nM.
Take `CNc1cc(-c2ccc(-c3ccccc3)cc2F)nc(N)n1` [Example 50, 6-(2-fluoro-4-phenylphenyl)-4-N-methylpyrimidine-2,4-diamine.]: the half-inhibitory concentration (IC50) was below 200 nM.
With `C=CCNc1cc(-c2ccc(Cl)cc2)nc(N)n1` [Example 53, 6-(4-chlorophenyl)-4-N-(prop-2-en-1-yl)pyrimidine-2,4-diamine], the IC50 is below 200 nM.
As for `Nc1nc(NC2CCC2)cc(-c2ccc(Cl)cc2)n1` [Example 58, 6-(4-chlorophenyl)-4-N-cyclobutylpyrimidine-2,4-diamine], the IC50 is below 200 nM.
For `CCCCCNc1cc(-c2cccc(Cl)c2Cl)nc(N)n1` [Example 61, 6-(2,3-dichlorophenyl)-4-N-pentylpyrimidine-2,4-diamine], the IC50 was below 200 nM.
For `CC(C)(C)Nc1cc(-c2cccc(Cl)c2Cl)nc(N)n1` [Example 63, 4-N-tert-butyl-6-(2,3-dichlorophenyl)pyrimidine-2,4-diamine], the IC50 was below 200 nM.
Regarding `CNc1cc(-c2ccc(Cl)c(Cl)c2)nc(N)n1` [Example 68, 6-(3,4-dichlorophenyl)-4-N-methylpyrimidine-2,4-diamine], the concentration for half-maximal inhibition (IC50) is below 200 nM.
For the compound `CNc1cc(-c2ccc(C(C)(C)C)cc2)nc(N)n1` [Example 69, 6-(4-tert-butylphenyl)-4-N-methylpyrimidine-2,4-diamine], the IC50 is below 200 nM.
In the case of `CNc1cc(-c2ccc(C)cc2)nc(N)n1` [Example 70, 4-N-methyl-6-(4-methylphenyl)pyrimidine-2,4-diamine], the half-inhibitory concentration (IC50) was below 200 nM.
With `CNc1cc(-c2ccc(Cl)cc2Cl)nc(N)n1` [Example 71, 6-(2,4-dichlorophenyl)-4-N-methylpyrimidine-2,4-diamine], the IC50 is below 200 nM.
As to `CNc1cc(-c2ccc(F)cc2F)nc(N)n1` [Example 75, 6-(2,4-difluorophenyl)-4-N-methylpyrimidine-2,4-diamine], the IC50 was below 200 nM.
To `CNc1cc(-c2cc(F)ccc2OC)nc(N)n1` [Example 76, 6-(5-fluoro-2-methoxyphenyl)-4-N-methylpyrimidine-2,4-diamine] belongs below 200 nM.
Turning to `CNc1cc(-c2ccc(OC)c(F)c2)nc(N)n1` [Example 82, 6-(3-fluoro-4-methoxyphenyl)-4-N-methylpyrimidine-2,4-diamine], the 50% inhibitory concentration (IC50) is below 200 nM.
To `CNc1cc(-c2ccc(F)c(F)c2)nc(N)n1` [Example 83, 6-(3,4-difluorophenyl)-4-N-methylpyrimidine-2,4-diamine] belongs below 200 nM; to `CNc1cc(-c2ccc(OC(C)C)cc2)nc(N)n1` [Example 84, 4-N-methyl-6-[4-(propan-2-yloxy)phenyl]pyrimidine-2,4-diamine], below 200 nM; to `CNc1cc(-c2cccc(C)c2C)nc(N)n1` [Example 86, 6-(2,3-dimethylphenyl)-4-N-methylpyrimidine-2,4-diamine], below 200 nM.
For `CNc1cc(-c2ccc(Cl)c(F)c2)nc(N)n1` [Example 88, 6-(4-chloro-3-fluorophenyl)-4-N-methylpyrimidine-2,4-diamine], the IC50 is below 200 nM.
Turning to `CNc1cc(-c2cccc(C(F)(F)F)c2Cl)nc(N)n1` [Example 91, 6-[2-chloro-3-(trifluoromethyl)phenyl]-4-N-methylpyrimidine-2,4-diamine], the 50% inhibitory concentration (IC50) was below 200 nM.
Consider `CNc1cc(-c2cccc(F)c2Cl)nc(N)n1` [Example 92, 6-(2-chloro-3-fluorophenyl)-4-N-methylpyrimidine-2,4-diamine], for which the half-maximal inhibitory concentration (IC50) was below 200 nM.
Take `CNc1cc(-c2cccc(Cl)c2C)nc(N)n1` [Example 94, 6-(3-chloro-2-methylphenyl)-4-N-methylpyrimidine-2,4-diamine]: the 50% inhibitory concentration (IC50) is below 200 nM.
For `CNc1cc(-c2cc(OC)cc(Cl)c2Cl)nc(N)n1` [Example 99, 6-(2,3-dichloro-5-methoxyphenyl)-4-N-methylpyrimidine-2,4-diamine], the concentration for half-maximal inhibition (IC50) is below 200 nM.
The same measure for `CNc1cc(-c2ccc(O)cc2)nc(N)n1` [Example 100, 4-[2-amino-6-(methylamino)pyrimidin-4-yl]phenol]: below 200 nM; for `CNc1cc(-c2ccc(C(=O)N3CCOCC3)c(Cl)c2)nc(N)n1` [Example 104, 6-[3-chloro-4-(morpholine-4-carbonyl)phenyl]-4-N-methylpyrimidine-2,4-diamine]: below 200 nM; for `CNc1cc(-c2ccc(/C=C/C(=O)OC)cc2)nc(N)n1` [Example 106, methyl (2E)-3-{4-[2-amino-6-(methylamino)pyrimidin-4-yl]phenyl}prop-2-enoate]: below 200 nM.
Consider `CNc1cc(-c2cccc(/C=C/C(=O)OC)c2)nc(N)n1` [Example 107, methyl (2E)-3-{3-[2-amino-6-(methylamino)pyrimidin-4-yl]phenyl}prop-2-enoate], for which the IC50 is below 200 nM.
`CNc1cc(-c2ccc(C(C)=O)cc2)nc(N)n1` [Example 109, 1-(4-(2-Amino-6-(methylamino)pyrimidin-4-yl)phenyl)ethanone]: the IC50 is below 200 nM.
For the compound `Cc1cccc(-c2cc(NC3CC3)nc(N)n2)c1C` [Example 114, 4-N-cyclopropyl-6-(2,3-dimethylphenyl)pyrimidine-2,4-diamine], the IC50 was below 200 nM.
The same measure for `CNc1cc(-c2c[nH]c3ccccc23)nc(N)n1` [Example 116, 6-(1H-indol-3-yl)-4-N-methylpyrimidine-2,4-diamine]: below 200 nM; for `Cc1cccc(-c2cc(NCCc3ccccc3)nc(N)n2)c1C` [Example 118, 6-(2,3-dimethylphenyl)-4-N-(2-phenylethyl)pyrimidine-2,4-diamine]: below 200 nM; for `Cc1cccc(-c2nc(N)nc3c2CCCN3)c1C` [Example 121, 4-(2,3-dimethylphenyl)-5H,6H,7H,8H-pyrido[2,3-d]pyrimidin-2-amine]: below 200 nM.
To `Nc1nc2c(c(-c3cccc(Cl)c3Cl)n1)CCCN2` [Example 122, 4-(2,3-dichlorophenyl)-5H,6H,7H,8H-pyrido[2,3-d]pyrimidin-2-amine] belongs below 200 nM; to `Nc1nc2c(c(-c3cn(S(=O)(=O)c4ccccc4)c4ccccc34)n1)CCCN2` [Example 123, 4-[1-(benzenesulfonyl)-1H-indol-3-yl]-5H,6H,7H,8H-pyrido[2,3-d]pyrimidin-2-amine], below 200 nM; to `CNc1cc(-c2cc(F)cc(F)c2)nc(N)n1` [Example 124, 6-(3,5-difluorophenyl)-4-N-methylpyrimidine-2,4-diamine], below 200 nM.
On to `COc1ccc(CCNc2cc(-c3cccc(C)c3C)nc(N)n2)cc1` [Example 125, 6-(2,3-dimethylphenyl)-4-N-[2-(4-methoxyphenyl)ethyl]pyrimidine-2,4-diamine], for which the IC50 is below 200 nM.
In the case of `Cc1cccc(-c2cc(NCCc3ccc(Cl)cc3)nc(N)n2)c1C` [Example 128, 4-N-[2-(4-chlorophenyl)ethyl]-6-(2,3-dimethylphenyl)pyrimidine-2,4-diamine], the IC50 is below 200 nM.
To `Cc1cccc(-c2cc(NCC(C)c3ccccc3)nc(N)n2)c1C` (stereo not shown) [Example 130, 6-(2,3-dimethylphenyl)-4-N-(2-phenylpropyl)pyrimidine-2,4-diamine] belongs below 200 nM; to `Cc1cccc(-c2cc(NCCNc3ccccc3)nc(N)n2)c1C` [Example 133, 6-(2,3-dimethylphenyl)-4-N-[2-(phenylamino)ethyl]pyrimidine-2,4-diamine], below 200 nM; to `Cc1cccc(-c2cc(NCCc3c[nH]c4ccccc34)nc(N)n2)c1C` [Example 134, 6-(2,3-dimethylphenyl)-4-N-[2-(1H-indol-3-yl)ethyl]pyrimidine-2,4-diamine], below 200 nM.
With `Cc1cccc(-c2cc(NCCN3CCNC3=O)nc(N)n2)c1C` [Example 136, 1-(2-{[2-amino-6-(2,3-dimethylphenyl)pyrimidin-4-yl]amino}ethyl)imidazolidin-2-one], the 50% inhibitory concentration (IC50) is below 200 nM.
Take `Cc1cccc(-c2cc(NCCCN3CCCC3=O)nc(N)n2)c1C` [Example 137, 1-(3-{[2-amino-6-(2,3-dimethylphenyl)pyrimidin-4-yl]amino}propyl)pyrrolidin-2-one]: the IC50 was below 200 nM.
The same measure for `CNc1cc(-c2cc(C)c(O)c(C)c2)nc(N)n1` [Example 138, 4-[2-amino-6-(methylamino)pyrimidin-4-yl]-2,6-dimethylphenol]: below 200 nM.
The same measure for `CNc1cc(-c2ccc(O)c(OC)c2)nc(N)n1` [Example 139, 4-[2-amino-6-(methylamino)pyrimidin-4-yl]-2-methoxyphenol]: below 200 nM.
On to `CNc1cc(-c2ccc(O)c(F)c2)nc(N)n1` [Example 140, 4-[2-amino-6-(methylamino)pyrimidin-4-yl]-2-fluorophenol], for which the concentration for half-maximal inhibition (IC50) is below 200 nM.
